Data reported in patent publication US11254676B2, “Pyrazole derivative compound and use thereof” (HANMI PHARM. CO., LTD., priority 2017, dated 2022).

Test system: NCI-H1417 cells
Test: Cell growth suppression test, CellTiter-Glo Luminescent Cell Viability Assay
Assay type: cell-based
Conditions: Homo sapiens, 240 h; NCI-H1417 cells treated for 10 days
Procedure: Cell growth suppression effects of the synthesized compounds on NCI-H1417 cells were identified. The cells were treated with the synthesized compounds for 10 days. Then, in order to test the cell growth suppression, CellTiter-Glo Luminescent Cell Viability Assay (available from Promega, USA) was used. This test is to measure emission signals proportional to the number of ATPs based on a fixed amount of ATPs, which represents the presence of metabolically active cells, thereby determining the number of viable cells. The results are expressed as a GI50 value. As for a control, GSK2879552 (available from GlaxoSmithKline USA) was used.

SMILES	GI50 [µM]
N#Cc1ccc(-c2cc(C(=O)N3CCC[C@@H](N)C3)nn2-c2ccc(C3CC3)cc2)cc1 [Example 1, (R)-4-(3-(3-aminopiperidine-1-carbonyl)-1-(4-cyclopropylphenyl)-1H-pyrazole-5-yl)benzonitrile]	0.094
CN[C@@H]1CCCN(C(=O)c2cc(-c3ccc(C#N)cc3)n(-c3ccc(C4CC4)cc3)n2)C1 [Example 2, (R)-4-(1-(4-cyclopropylphenyl)-3-(3-methylaminopiperidine-1-carbonyl)-1H-pyrazole-5-yl)benzonitrile]	0.12
N#Cc1ccc(-c2cc(C(=O)N3CCC[C@@H](N)C3)nn2-c2ccc(C3CC3)cc2F)cc1 [Example 3, (R)-4-(3-(3-aminopiperidine-1-carbonyl)-1-(4-cyclopropyl-2-fluorophenyl)-1H-pyrazole-5-yl)benzonitrile]	0.049
CN[C@@H]1CCCN(C(=O)c2cc(-c3ccc(C#N)cc3)n(-c3ccc(C4CC4)cc3F)n2)C1 [Example 4, (R)-4-(1-(4-cyclopropyl-2-fluorophenyl)-3-(3-(methylamino)piperidine-1-carbonyl)-1H-pyrazole-5-yl)benzonitrile]	0.024
N#Cc1ccc(-c2cc(C(=O)N3CCC[C@@H](N)C3)nn2-c2ccc(C3CC3)cc2F)cc1F [Example 5, (R)-4-(3-(3-aminopiperidine-1-carbonyl)-1-(4-cyclopropyl-2-fluorophenyl)-1H-pyrazole-5-yl)-2-fluorobenzonitrile]	0.048
N#Cc1ccc(-c2cc(C(=O)N3CCCC[C@@H](N)C3)nn2-c2ccc(C3CC3)cc2F)cc1F [Example 8, (R)-4-(3-(3-aminoazepane-1-carbonyl)-1-(4-cyclopropyl-2-fluorophenyl)-1H-pyrazole-5-yl)-2-fluorobenzonitrile]	0.101
N#Cc1ccc(-c2cc(C(=O)N3CCC[C@@H](N)C3)nn2-c2c(F)cc(C3CC3)cc2F)cc1F [Example 10, (R)-4-(3-(3-aminopiperidine-1-carbonyl)-1-(4-cyclopropyl-2,6-difluorophenyl)-1H-pyrazole-5-yl)-2-fluorobenzonitrile]	0.108
CC(C)c1ccc(-n2nc(C(=O)N3CCC[C@@H](N)C3)cc2-c2ccc(C#N)cc2)cc1 [Example 35, (R)-4-(3-(3-aminopiperidine-1-carbonyl)-1-(4-isopropylphenyl)-1H-pyrazole-5-yl)benzonitrile]	0.145
CN[C@@H]1CCCN(C(=O)c2cc(-c3ccc(C#N)cc3)n(-c3ccc(C(C)C)cc3)n2)C1 [Example 36, (R)-4-(1-(4-isopropylphenyl)-3-(3-(methylamino)piperidine-1-carbonyl)-1H-pyrazole-5-yl) benzonitrile]	0.091
CC(C)c1ccc(-n2nc(C(=O)N3CCC[C@@H](N)C3)cc2-c2ccc(C#N)cc2)c(F)c1 [Example 37, (R)-4-(3-(3-aminopiperidine-1-carbonyl)-1-(2-fluoro-4-isopropylphenyl)-1H-pyrazole-5-yl) benzonitrile]	0.215
CC(C)c1ccc(-n2nc(C(=O)N3CCC[C@@H](N)C3)cc2-c2ccc(C#N)c(F)c2)c(F)c1 [Example 38, (R)-4-(3-(3-aminopiperidine-1-carbonyl)-1-(2-fluoro-4-isopropylphenyl)-1H-pyrazole-5-yl)-2-fluorobenzonitrile]	0.079
CC(C)c1ccc(-n2nc(C(=O)N3CCCC[C@@H](N)C3)cc2-c2ccc(C#N)c(F)c2)c(F)c1 [Example 39, (R)-4-(3-(3-aminoazepane-1-carbonyl)-1-(2-fluoro-4-isopropylphenyl)-1H-pyrazole-5-yl)-2-fluorobenzonitrile]	0.139
CC(C)(C)c1ccc(-n2nc(C(=O)N3CCC[C@@H](N)C3)cc2-c2ccc(C#N)cc2)cc1 [Example 40, (R)-4-(3-(3-aminopiperidine-1-carbonyl)-1-(4-(tert-butyl)phenyl)-1H-pyrazole-5-yl)benzonitrile]	0.226
CN[C@@H]1CCCN(C(=O)c2cc(-c3ccc(C#N)cc3)n(-c3ccc(C(C)(C)C)cc3)n2)C1 [Example 41]	0.126
CC(C)(C)c1ccc(-n2nc(C(=O)N3CCC[C@@H](N)C3)cc2-c2ccc(C#N)cc2)c(F)c1 [Example 42, (R)-4-(3-(3-aminopiperidine-1-carbonyl)-1-(4-(tert-butyl)-2-fluorophenyl)-1H-pyrazole-5-yl)benzonitrile]	0.226
CC(C)(C)c1ccc(-n2nc(C(=O)N3CCC[C@@H](N)C3)cc2-c2ccc(C#N)c(F)c2)c(F)c1 [Example 43]	0.069

SMILES	GI50 [µM]
CC(C)(C)c1ccc(-n2nc(C(=O)N3CCCC[C@@H](N)C3)cc2-c2ccc(C#N)c(F)c2)c(F)c1 [Example 44]	0.133
CN(C)c1ccc(-n2nc(C(=O)N3CCC[C@@H](N)C3)cc2-c2ccc(C#N)cc2)cc1 [Example 53]	0.102
CN(C)c1ccc(-n2nc(C(=O)N3CCC[C@@H](N)C3)cc2-c2ccc(C#N)cc2)c(F)c1 [Example 54, (R)-4-(3-(3-aminopiperidine-1-carbonyl)-1-(4-(dimethylamino)-2-fluorophenyl)-1H-pyrazole-5-yl)benzonitrile]	0.084
N#Cc1ccc(-c2cc(C(=O)N3CCC[C@@H](N)C3)nn2-c2ccc(N3CCCC3)cc2F)cc1 [Example 57, (R)-4-(3-(3-aminopiperidine-1-carbonyl)-1-(2-fluoro-4-(pyrrolidine-1-yl)phenyl)-1H-pyrazole-5-yl)benzonitrile]	0.045
N#Cc1ccc(-c2cc(C(=O)N3CCC[C@@H](N)C3)nn2-c2ccc(N3CCCC3)cc2F)cc1F [Example 58, (R)-4-(3-(3-aminopiperidine-1-carbonyl)-1-(2-fluoro-4-(pyrrolidine-1-yl)phenyl)-1H-pyrazole-5-yl)-2-fluorobenzonitrile]	0.024
CN[C@@H]1CCCN(C(=O)c2cc(-c3ccc(C#N)c(F)c3)n(-c3ccc(N4CCCC4)cc3F)n2)C1 [Example 59, (R)-2-fluoro-4-(1-(2-fluoro-4-(pyrrolidine-1-yl)phenyl)-3-(3-(methylamino)piperidine-1-carbonyl)-1H-pyrazole-5-yl)benzonitrile]	0.0097
N#Cc1ccc(-c2cc(C(=O)N3CCCC[C@@H](N)C3)nn2-c2ccc(N3CCCC3)cc2F)cc1F [Example 60, (R)-4-(3-(3-aminoazepane-1-carbonyl)-1-(2-fluoro-4-(pyrrolidine-1-yl)phenyl)-1H-pyrazole-5-yl)-2-fluorobenzonitrile]	0.053
N#Cc1ccc(-c2cc(C(=O)N3CCC[C@@H](N)C3)nn2-c2ccc(N3CC[C@@H](F)C3)cc2F)cc1F [Example 61, 4-(3-((R)-3-aminopiperidine-1-carbonyl)-1-(2-fluoro-4-((R)-3-fluoropyrrolidine-1-yl)phenyl)-1H-pyrazole-5-yl)-2-fluorobenzonitrile]	0.082
N#Cc1ccc(-c2cc(C(=O)N3CCC[C@@H](N)C3)nn2-c2ccc(N3CCC(F)(F)C3)cc2F)cc1F [Example 63, (R)-4-(3-(3-aminopiperidine-1-carbonyl)-1-(4-(3,3-difluoropyrrolidine-1-yl)-2-fluorophenyl)-1H-pyrazole-5-yl)-2-fluorobenzonitrile]	0.033
CN[C@@H]1CCCN(C(=O)c2cc(-c3ccc(C#N)c(F)c3)n(-c3ccc(N4CCC(F)(F)C4)cc3F)n2)C1 [Example 64, (R)-4-(1-(4-(3,3-difluoropyrrolidine-1-yl)-2-fluorophenyl)-3-(3-(methylamino)piperidine-1-carbonyl)-1H-pyrazole-5-yl)-2-fluorobenzonitrile]	0.019
COC1CCN(c2ccc(-n3nc(C(=O)N4CCC[C@@H](N)C4)cc3-c3ccc(C#N)c(F)c3)c(F)c2)C1 (stereo partly drawn) [Example 65, 4-(3-((R)-3-aminopiperidine-1-carbonyl)-1-(2-fluoro-4-(3-methoxypyrrolidin-1-yl)phenyl)-1H-pyrazol-5-yl)-2-fluorobenzonitrile]	0.058
CN[C@@H]1CCCN(C(=O)c2cc(-c3ccc(C#N)c(F)c3)n(-c3ccc(N4CCC(OC)C4)cc3F)n2)C1 (stereo partly drawn) [Example 66, 2-fluoro-4-(1-(2-fluoro-4-(3-methoxypyrrolidine-1-yl)phenyl)-3-((R)-3-(methylamino)piperidine-1-carbonyl)-1H-pyrazole-5-yl)benzonitrile]	0.016
CO[C@H]1CCN(c2ccc(-n3nc(C(=O)N4CCC[C@@H](N)C4)cc3-c3ccc(C#N)c(F)c3)c(F)c2)C1 [Example 67, 4-(3-((R)-3-aminopiperidine-1-carbonyl)-1-(2-fluoro-4-((S)-3-methoxypyrrolidine-1-yl)phenyl)-1H-pyrazole-5-yl)-2-fluorobenzonitrile]	0.03
CN[C@@H]1CCCN(C(=O)c2cc(-c3ccc(C#N)c(F)c3)n(-c3ccc(N4CC[C@H](OC)C4)cc3F)n2)C1 [Example 68, 2-fluoro-4-(1-(2-fluoro-4-((S)-3-methoxypyrrolidine-1-yl)phenyl)-3-((R)-3-(methylamino)piperidine-1-carbonyl)-1H-pyrazole-5-yl)benzonitrile]	0.0068
CO[C@@H]1CCN(c2ccc(-n3nc(C(=O)N4CCC[C@@H](N)C4)cc3-c3ccc(C#N)c(F)c3)c(F)c2)C1 [Example 69, 4-(3-((R)-3-aminopiperidine-1-carbonyl)-1-(2-fluoro-4-((R)-3-methoxypyrrolidine-1-yl)phenyl)-1H-pyrazole-5-yl)-2-fluorobenzonitrile]	0.038
CN[C@@H]1CCCN(C(=O)c2cc(-c3ccc(C#N)c(F)c3)n(-c3ccc(N4CC[C@@H](OC)C4)cc3F)n2)C1 [Example 70, 2-fluoro-4-(1-(2-fluoro-4-((R)-3-methoxypyrrolidine-1-yl)phenyl)-3-((R)-3-(methylamino)piperidine-1-carbonyl)-1H-pyrazole-5-yl)benzonitrile]	0.018
